Target: RIPK1 (Homo sapiens (Human), UniProt Q13546)
Test: RIPK1-ADP-Glo Enzymatic Assay
Assay type: biochemical
Details: recombinant GST-RIPK1 kinase domain (residues 1-327), 25 nM, ten-point titration, 30 minutes pre-incubation
Protocol: The enzymatic activity of RIPK1 was measured using an assay derived from ADP-Glo kit (™Promega), which provides a luminescent-based ADP detection system. Specifically, the ADP generated by RIPK1 kinase was proportionally detected as luminescent signals in a homogenous fashion. In this context, the assessment of the inhibitory effect of small molecules (EC50) was measured by the effectiveness of the compounds to inhibit the ATP to ADP conversion by RIPK1.
In this assay, the potency (EC50) of each compound was determined from a ten-point (1:3 serial dilution: top compound concentration of 100000 nM) titration curve using the following outlined procedure. To each well of a white ProxiPlus 384 well-plate, 30 nL of compound (1% DMSO in final assay volume of 3 μL) was dispensed, followed by the addition of 2 μL of 1x assay buffer (25 mM Hepes 7.3, 20 mM MgCl2, 50 mM NaCl, 1 mM DTT, 0.005% Tween20, and 0.02% BSA) containing 37.5 nM of GST-RIPK1 (recombinant GST-RIPK1 kinase domain (residues 1-327) enzyme produced from baculovirus-transfected Sf21 cells: MW=62 kDa). Plates were placed in an ambient temperature humidified chamber for a 30 minutes pre-incubation with compound. Subsequently, each reaction was initiated by the addition of 1 μL 1× assay buffer containing […] dephosphorylated-MBP substrate. The final reaction in each well of 3 μL consists of 25 nM of GST-RIPK1, 300 µM ATP, and 3 μM dephosphorylated-MBP. Kinase reactions were allowed to proceed for 150 minutes prior to adding ADP-Glo reagents per Promega's outlined kit protocol. Dose-response curves were generated by plotting percent effect (% product conversion: Y-axis) vs. Logio compound concentrations (X-axis). EC50 values were calculated using a non-linear regression, four-parameters sigmoidal dose-response model and are provided for example compounds of the invention (labeled “RIPK1 EC50 (nM)” throughout the above examples).

Sequence of RIPK1 (Q13546 1-327): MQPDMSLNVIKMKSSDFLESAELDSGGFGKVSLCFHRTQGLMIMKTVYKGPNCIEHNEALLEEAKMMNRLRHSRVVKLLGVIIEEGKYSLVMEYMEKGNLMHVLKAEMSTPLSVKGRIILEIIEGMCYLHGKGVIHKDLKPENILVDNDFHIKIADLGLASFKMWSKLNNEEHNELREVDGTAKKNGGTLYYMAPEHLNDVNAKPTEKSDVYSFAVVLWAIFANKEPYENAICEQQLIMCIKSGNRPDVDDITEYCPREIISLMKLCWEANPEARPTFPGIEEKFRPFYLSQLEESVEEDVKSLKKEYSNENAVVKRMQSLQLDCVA

Row | EC50 [µM] | SMILES
1 | 0.673 | CSc1ncc(C)c(N2CCC3(CC2)CN2CC[C@@H](c4cc(F)cc(F)c4)N2C3=O)n1 [Example 1.66, (S)-7′-(3,5-difluorophenyl)-1-(5-methyl-2-(methylthio)pyrimidin-4-yl)dihydro-1′H,3′H,5′H-spiro[piperidine-4,2′-pyrazolo[1,2-a]pyrazol]-1′-one]
2 | 0.211 | N#Cc1cc(F)cc(C(=O)N2CCC3(CC2)CN2CC[C@@H](c4cc(F)cc(F)c4)N2C3=O)c1 [Example 4.7, (S)-3-(7′-(3,5-difluorophenyl)-1′-oxodihydro-1′H,3′H,5′H-spiro[piperidine-4,2′-pyrazolo[1,2-a]pyrazole]-1-carbonyl)-5-fluorobenzonitrile]
3 | 0.015 | O=C1N2[C@H](c3cc(F)cc(F)c3)CCN2CC12CCN(c1cc(-c3ccccc3)ncn1)CC2 [Example 1.35, (S)-7′-(3,5-difluorophenyl)-1-(6-phenylpyrimidin-4-yl)dihydro-1′H,3′H,5′H-spiro[piperidine-4,2′-pyrazolo[1,2-a]pyrazol]-1′-one]
4 | 0.017 | Cc1ccn(-c2cccc(N3CCC4(CC3)CN3CC[C@@H](c5cc(F)cc(F)c5)N3C4=O)n2)n1 [Example 2.13, (S)-7′-(3,5-difluorophenyl)-1-(6-(3-methyl-1H-pyrazol-1-yl)pyridin-2-yl)dihydro-1′H,3′H,5′H-spiro[piperidine-4,2′-pyrazolo[1,2-a]pyrazol]-1′-one]
5 | 0.016 | O=C1N2[C@H](c3cc(F)cc(F)c3)CCN2CC12CCN(c1ccnc(C(F)F)n1)CC2 [Example 1.8, (7′S)-1-[2-(difluoromethyl)pyrimidin-4-yl]-7′-(3,5-difluorophenyl)dihydro-1′H,3′H,5′H-spiro[piperidine-4,2′-pyrazolo[1,2-a]pyrazol]-1′-one]
6 | 0.018 | Cc1cc(F)cc(C(=O)N2CCC3(CC2)CN2CC[C@@H](c4cc(F)cc(F)c4)N2C3=O)c1 [Example 4.18, (S)-7′-(3,5-difluorophenyl)-1-(3-fluoro-5-methylbenzoyl) dihydro-1′H,3′H,5′H-spiro[piperidine-4,2′-pyrazolo[1,2-a]pyrazol]-l′-one]
7 | 0.017 | CSc1cc(N2CCC3(CC2)CN2CC[C@@H](c4cc(F)cc(F)c4)N2C3=O)ncn1 [Example 1.14, (S)-7′-(3,5-difluorophenyl)-1-(6-(methylthio)pyrimidin-4-yl)dihydro-1′H,3′H,5′H-spiro[piperidine-4,2′-pyrazolo[1,2-a]pyrazol]-1′-one]
8 | 0.096 | O=C1N2[C@H](c3cc(F)cc(F)c3)CCN2CC12CCN(c1cnc(-c3cccc(Cl)c3)cn1)CC2 [Example 2.17, (S)-1-(5-(3-chlorophenyl)pyrazin-2-yl)-7′-(3,5-difluorophenyl)dihydro-1′H,3′H,5′H-spiro[piperidine-4,2′-pyrazolo[1,2-a]pyrazol]-1′-one]
9 | 0.023 | O=C(c1ccc(Cl)c(F)c1)N1CCC2(CC1)CN1CC[C@@H](c3cc(F)cc(F)c3)N1C2=O [Example 4.23, (S)-1-(4-chloro-3-fluorobenzoyl)-7′-(3,5-difluorophenyl) dihydro-1′H,3′H,5′H-spiro[piperidine-4,2′-pyrazolo[1,2-a]pyrazol]-l′-one]
10 | 0.144 | O=C1N2[C@H](c3cc(F)cc(F)c3)CCN2CC12CCN(c1nc(Cl)nc3c1CCC3)CC2 [Example 1.65, (S)-1-(2-chloro-6,7-dihydro-5H-cyclopenta[d]pyrimidin-4-yl)-7′-(3,5-difluorophenyl)dihydro-1′H,3′H,5′H-spiro[piperidine-4,2′-pyrazolo[1,2-a]pyrazol]-1′-one]
11 | 0.05 | O=C1N2[C@H](c3cc(F)cc(F)c3)CCN2CC12CCN(c1nc3ccccc3o1)CC2 [Example 1.80, (S)-1-(benzo[d]oxazol-2-yl)-7′-(3,5-difluorophenyl)dihydro-1′H,3′H,5′H-spiro[piperidine-4,2′-pyrazolo[1,2-a]pyrazol]-1′-one]
12 | 0.106 | CNC(=O)c1ccnc(N2CCC3(CC2)CN2CC[C@@H](c4cc(F)cc(F)c4)N2C3=O)n1 [Example 1.90, (S)-2-(7′-(3,5-difluorophenyl)-1′-oxodihydro-1′H,3′H,5′H-spiro[piperidine-4,2′-pyrazolo[1,2-a]pyrazol]-1-yl)-N-methylpyrimidine-4-carboxamide]
13 | 0.83 | O=C1N2[C@H](c3cc(F)cc(F)c3)CCN2CC12CCN(S(=O)(=O)c1ccccc1)CC2 [Example 5.3, (S)-7′-(3,5-difluorophenyl)-1-(phenylsulfonyl) dihydro-l′H,3′H,5′H-spiro[piperidine-4,2′-pyrazolo[1,2-a]pyrazol]-l′-one]
14 | 0.023 | Cc1cc(F)c(C(=O)N2CCC3(CC2)CN2CC[C@@H](c4cc(F)cc(F)c4)N2C3=O)cc1F [Example 4.26, (S)-1-(2,5-difluoro-4-methylbenzoyl)-7′-(3,5-difluorophenyl) dihydro-1′H,3′H,5′H-spiro[piperidine-4,2′-pyrazolo[1,2-a]pyrazol]-l′-one]
15 | 0.016 | O=C1N2[C@H](c3cc(F)cc(F)c3)CCN2CC12CCN(c1ncnc3ccsc13)CC2 [Example 1.13, (S)-7′-(3,5-difluorophenyl)-1-(thieno[3,2-d]pyrimidin-4-yl)dihydro-1′H,3′H,5′H-spiro[piperidine-4,2′-pyrazolo[1,2-a]pyrazol]-1′-one]
16 | 0.038 | O=C1N2[C@H](c3cc(F)cc(F)c3)CCN2CC12CCN(c1ncc(OC(F)F)cn1)CC2 [Example 1.25, (S)-1-(5-(difluoromethoxy)pyrimidin-2-yl)-7′-(3,5-difluorophenyl)dihydro-1′H,3′H,5′H-spiro[piperidine-4,2′-pyrazolo[1,2-a]pyrazol]-1′-one]
17 | 0.046 | Cc1ccc(C(=O)N2CCC3(CC2)CN2CC[C@@H](c4cc(F)cc(F)c4)N2C3=O)cc1F [Example 4.22, (S)-7′-(3,5-difluorophenyl)-1-(3-fluoro-4-methylbenzoyl) dihydro-1′H,3′H,5′H-spiro[piperidine-4,2′-pyrazolo[1,2-a]pyrazol]-l′-one]
18 | 0.08 | Cc1cnn(-c2cnc(N3CCC4(CC3)CN3CC[C@@H](c5cc(F)cc(F)c5)N3C4=O)cn2)c1 [Example 2.15, (S)-7′-(3,5-difluorophenyl)-1-(5-(4-methyl-1H-pyrazol-1-yl)pyrazin-2-yl)dihydro-l′H,3′H,5′H-spiro[piperidine-4,2′-pyrazolo[1,2-a]pyrazol]-1′-one]
19 | 0.333 | O=C1N2[C@H](c3cc(F)cc(F)c3)CCN2CC12CCN(c1nnc(-c3ccccc3)o1)CC2 [Example 1.82, (S)-7′-(3,5-difluorophenyl)-1-(5-phenyl-1,3,4-oxadiazol-2-yl)dihydro-1′H,3′H,5′H-spiro[piperidine-4,2′-pyrazolo[1,2-a]pyrazol]-1′-one]
20 | 0.024 | COc1cc(N2CCC3(CC2)CN2CC[C@@H](c4cc(F)cc(F)c4)N2C3=O)ccn1 [Example 1.89, (S)-7′-(3,5-difluorophenyl)-1-(2-methoxypyridin-4-yl)dihydro-1′H,3′H,5′H-spiro[piperidine-4,2′-pyrazolo[1,2-a]pyrazol]-1′-one]
21 | 0.024 | O=C1N2[C@H](c3cc(F)cc(F)c3)CCN2CC12CCN(c1ncnc3sccc13)CC2 [Example 1.68, (S)-7′-(3,5-difluorophenyl)-1-(thieno[2,3-d]pyrimidin-4-yl)dihydro-1′H,3′H,5′H-spiro [piperidine-4,2′-pyrazolo[1,2-a]pyrazol]-1′-one]

Row | SMILES | EC50 [µM]
22 | Cc1nc(N2CCC3(CC2)CN2CC[C@@H](c4cc(F)cc(F)c4)N2C3=O)ccc1Cl [Example 11.1, (S)-1-(5-chloro-6-methylpyridin-2-yl)-7′-(3,5-difluorophenyl) dihydro-1′H,3′H,5′H-spiro [piperidine-4,2′-pyrazolo[1,2-α]pyrazol]-1′-one] | 0.023
23 | O=C1N2[C@H](c3cc(F)cc(F)c3)CCN2CC12CCN(c1ncnc3scnc13)CC2 [Example 3.1] | 0.024
24 | Cc1ccc(N2CCC3(CC2)CN2CC[C@@H](c4cc(F)cc(F)c4)N2C3=O)n2nccc12 [Example 9.1, (S)-7′-(3,5-difluorophenyl)-1-(4-methylpyrazolo[1,5-α]pyridin-7-yl) dihydro-1′H,3′H,5′H-spiro [piperidine-4,2′-pyrazolo[1,2-α]pyrazol]-1′-one] | 0.017
25 | O=C1N2[C@H](c3cc(F)cc(F)c3)CCN2CC12CCN(c1cccc(F)c1)CC2 [Example 10.1, (S)-7′-(3,5-difluorophenyl)-1-(3-fluorophenyl) dihydro-1′H,3′H,5′H-spiro [piperidine-4,2′-pyrazolo[1,2-α]pyrazol]-1′-one] | 0.047
26 | CCn1cnc2c(N3CCC4(CC3)CN3CC[C@@H](c5cc(F)cc(F)c5)N3C4=O)ncnc21 [Example 3.2, (S)-7′-(3,5-difluorophenyl)-1-(9-ethyl-9H-purin-6-yl)dihydro-l′H,3′H,5′H-spiro[piperidine-4,2′-pyrazolo[1,2-a]pyrazol]-1′-one] | 0.765
27 | O=C1N2[C@H](c3cc(F)cc(F)c3)CCN2CC12CCN(c1ccc(Br)c3ccnn13)CC2 [Example 2.1] | 0.0075

Reference: patent publication US20240425524A1, “SPIROTRICYCLE RIPK1 INHIBITORS AND METHODS OF USES THEREOF” (Merck Sharp & Dohme LLC, priority 2021, published 2024)
